Measurements: ChEMBL document CHEMBL1201862, “PubChem BioAssay data set” (2004)
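In this assay, cells in 96-well plates receive the compound at five concentrations for 48 hours. Endpoints are linearly interpolated between the surrounding concentrations. Here, GI50 denotes the concentration required for 50% inhibition of growth.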 Activity calls are given as the source filed them. Rule as the data show it: active = GI50 up to about 1.1 µM and inactive = higher.

Columns and labels:
Test in all cases: NCI anticancer screen, dose series, 48 h
[1] = system: 786-0
[2] = system: A498
[3] = system: A549
[4] = system: ACHN
[5] = system: CAKI-1
[6] = system: CCRF-CEM
[7] = system: COLO 205
[8] = system: DLD-1
[9] = system: DMS-114
[10] = system: DMS-273
[11] = system: EKVX
[12] = system: HCC 2998
[13] = system: HCT-116
[14] = system: HCT-15
[15] = system: HL-60
[16] = system: HOP-18
[17] = system: HOP-62
[18] = system: HOP-92
[19] = system: HT-29
[20] = system: IGROV-1
[21] = system: K562
[22] = system: KM-20L2
[23] = system: KM12
[24] = system: LOX IMVI
[25] = system: LXFL 529
[26] = system: M14
[27] = system: M19-MEL
[28] = system: MOLT-4
[29] = system: Malme-3M
[30] = system: NCI-H226
[31] = system: NCI-H23
[32] = system: NCI-H460
[33] = system: NCI-H522
[34] = system: OVCAR-3
[35] = system: OVCAR-4
[36] = system: OVCAR-5
[37] = system: OVCAR-8
[38] = system: RPMI-8226
[39] = system: RXF 393
[40] = system: RXF 631
[41] = system: SF-268
[42] = system: SF-295
[43] = system: SK-MEL-28
[44] = system: SK-MEL-2
[45] = system: SK-MEL-5
[46] = system: SK-OV-3
[47] = system: SN12C
[48] = system: SNB-19
[49] = system: SNB-75
[50] = system: SNB-78
[51] = system: SR
[52] = system: SW-620
[53] = system: TK-10
[54] = system: U-251
[55] = system: UACC-257
[56] = system: UACC-62
[57] = system: UO-31
[58] = system: SF-539

Compound: CCCCCCCCCCC(C)CCCCCCC(=O)OCC(COP(=O)([O-])OCC[N+](C)(C)C)OC(=O)CCCCCCC(C)CCCCCCCCCC (centres undefined)
- GI50 [1]: > 100 µM (inactive)
- GI50 [2]: > 100 µM (inactive)
- GI50 [3]: > 100 µM (inactive)
- GI50 [4]: > 100 µM (inactive)
- GI50 [5]: > 100 µM (inactive)
- GI50 [6]: > 100 µM (inactive)
- GI50 [7]: > 100 µM (inactive)
- GI50 [8]: > 100 µM (inactive)
- GI50 [9]: > 100 µM (inactive)
- GI50 [10]: > 100 µM (inactive)
- GI50 [11]: > 100 µM (inactive)
- GI50 [12]: > 100 µM (inactive)
- GI50 [13]: > 100 µM (inactive)
- GI50 [14]: > 100 µM
- GI50 [15]: > 100 µM (inactive)
- GI50 [16]: > 100 µM (inactive)
- GI50 [17]: > 100 µM (inactive)
- GI50 [18]: > 100 µM (inactive)
- GI50 [19]: > 100 µM (inactive)
- GI50 [20]: > 100 µM (inactive)
- GI50 [21]: > 100 µM (inactive)
- GI50 [22]: > 100 µM (inactive)
- GI50 [23]: > 100 µM (inactive)
- GI50 [24]: > 100 µM (inactive)
- GI50 [25]: > 100 µM (inactive)
- GI50 [26]: > 100 µM (inactive)
- GI50 [27]: > 100 µM (inactive)
- GI50 [28]: > 100 µM (inactive)
- GI50 [29]: > 100 µM (inactive)
- GI50 [30]: > 100 µM (inactive)
- GI50 [31]: > 100 µM (inactive)
- GI50 [32]: > 100 µM (inactive)
- GI50 [33]: > 100 µM (inactive)
- GI50 [34]: > 100 µM (inactive)
- GI50 [35]: > 100 µM (inactive)
- GI50 [36]: > 100 µM (inactive)
- GI50 [37]: > 100 µM (inactive)
- GI50 [38]: > 100 µM (inactive)
- GI50 [39]: > 100 µM (inactive)
- GI50 [40]: > 100 µM (inactive)
- GI50 [41]: > 100 µM (inactive)
- GI50 [42]: > 100 µM (inactive)
- GI50 [43]: > 100 µM (inactive)
- GI50 [44]: > 100 µM (inactive)
- GI50 [45]: > 100 µM (inactive)
- GI50 [46]: > 100 µM (inactive)
- GI50 [47]: > 100 µM (inactive)
- GI50 [48]: > 100 µM (inactive)
- GI50 [49]: > 100 µM (inactive)
- GI50 [50]: > 100 µM (inactive)
- GI50 [51]: > 100 µM (inactive)
- GI50 [52]: > 100 µM (inactive)
- GI50 [53]: > 100 µM (inactive)
- GI50 [54]: > 100 µM (inactive)
- GI50 [55]: > 100 µM (inactive)
- GI50 [56]: > 100 µM (inactive)
- GI50 [57]: > 100 µM (inactive)

Compound: COC(=O)C(C(=O)C(=O)Nc1nc2ccc([N+](=O)[O-])cc2s1)c1nc2ccc(Cl)cc2nc1O (centres undefined)
- GI50 [1]: > 100 µM (inactive)
- GI50 [2]: 21.2 µM (inactive)
- GI50 [3]: > 100 µM (inactive)
- GI50 [4]: > 100 µM (inactive)
- GI50 [5]: 71.3 µM (inactive)
- GI50 [6]: > 100 µM (inactive)
- GI50 [7]: > 100 µM (inactive)
- GI50 [8]: > 100 µM (inactive)
- GI50 [9]: > 100 µM (inactive)
- GI50 [10]: > 100 µM (inactive)
- GI50 [11]: > 100 µM (inactive)
- GI50 [12]: > 100 µM (inactive)
- GI50 [13]: > 100 µM (inactive)
- GI50 [14]: > 100 µM
- GI50 [15]: > 100 µM (inactive)
- GI50 [16]: > 100 µM (inactive)
- GI50 [17]: > 100 µM (inactive)
- GI50 [19]: > 100 µM (inactive)
- GI50 [20]: > 100 µM (inactive)
- GI50 [21]: > 100 µM (inactive)
- GI50 [22]: > 100 µM (inactive)
- GI50 [23]: > 100 µM (inactive)
- GI50 [24]: > 100 µM (inactive)
- GI50 [25]: > 100 µM (inactive)
- GI50 [26]: > 100 µM (inactive)
- GI50 [27]: > 100 µM (inactive)
- GI50 [28]: > 100 µM (inactive)
- GI50 [29]: > 100 µM (inactive)
- GI50 [30]: > 100 µM (inactive)
- GI50 [31]: > 100 µM (inactive)
- GI50 [32]: > 100 µM (inactive)
- GI50 [33]: > 100 µM (inactive)
- GI50 [34]: > 100 µM (inactive)
- GI50 [35]: > 100 µM (inactive)
- GI50 [36]: > 100 µM (inactive)
- GI50 [37]: > 100 µM (inactive)
- GI50 [38]: > 100 µM (inactive)
- GI50 [39]: > 100 µM (inactive)
- GI50 [40]: > 100 µM (inactive)
- GI50 [41]: > 100 µM (inactive)
- GI50 [42]: > 100 µM (inactive)
- GI50 [58]: > 100 µM (inactive)
- GI50 [43]: > 100 µM (inactive)
- GI50 [44]: > 100 µM (inactive)
- GI50 [45]: > 100 µM (inactive)
- GI50 [46]: 35.2 µM (inactive)
- GI50 [47]: > 100 µM (inactive)
- GI50 [48]: > 100 µM (inactive)
- GI50 [49]: 52 µM (inactive)
- GI50 [50]: > 100 µM (inactive)
- GI50 [51]: > 100 µM (inactive)
- GI50 [52]: > 100 µM (inactive)
- GI50 [53]: > 100 µM (inactive)
- GI50 [54]: 94.8 µM (inactive)
- GI50 [55]: > 100 µM (inactive)
- GI50 [56]: > 100 µM (inactive)
- GI50 [57]: > 100 µM (inactive)
